Measured values published in US20070134282A1, “Methods for inhibiting fungal pathogen infestation and propogation” (Stephen F. Austin State University, priority 2005, published 2007).
In brackets after ≈: the same amount, converted by molar mass. Where two headings read alike, the source gives them in different places.

Key:
F. verticillioides = conditions: cited from earlier work
Alternaria alternata = experiment: mycelial growth inhibition on potato dextrose agar; assay type: cell-based
Method: (§1) Alternaria alternata, Epicoccum nigrum, Pestalotia guepinii, Drechslera sp., and Fusarium avenaceum were isolated from infected leaves and roots of C. acuminata. The strains were cultured and maintained on potato dextrose agar (PDA) medium.
(§2) CPT, trifolin, and hyperoside (isolated from Camptotheca as above) were tested for their ability to inhibit these fungi, as compard with two classical fungicides, Bravo (active ingredient: chlorothalonil) and Maneb (active ingredient: manganous ethylenebis [dithiocarbamate]), as references. The concentrations of the conventional fungicides were those recommended by the manufacturers (Bravo: 10,000 μg/mL; Maneb: 3,000 μg/mL).
(§3) In addition to a negative control (0) and two fungicides as positive controls for each of the five isolated pathogens, seven levels of CPT were tested with each of the fungi and three levels of trifolin and hyperoside were tested with P. guepinii, Drechslera sp. and F. avenaceum, respectively (see FIG. 8).
(§4) Trifolin and hyperoside treatments were applied at concentrations of 50, 100, and 150 μg/mL, respectively. For all cultures, final concentrations were made in molten (50° C.) potato dextrose agar (Difco), and 10 mL aliquots were poured into Petri dishes (85 mm in diameter). Within 24 hours after pouring, each of the plates was inoculated with one of the five fungi. One 5×5 mm mycelial plug was cut from the actively growing front of a 2 week old colony, then placed with the inoculum side down in the center of each treatment plate. The cultures were incubated at 24° C. For all experiments, five replicate plates were inoculated for each treatment.
(§5) Mycelial growth on each plate was observed daily and recorded on a transparent film for the first two weeks, then recorded on the 16th, 20th, 23rd, and 28th days. Colony radii were measured along four vertical radial directions. The mean of the four measurements was calculated as the growth rate on each plate. Mean and standard error were calculated from the five replicates of each treatment. For each of the fungi, values of EC50 (effective concentration that caused 50% inhibition of mycelial growth) and MIC (the minimum inhibitory concentration) of each compound were estimated.

Epicoccum nigrum = experiment: mycelial growth inhibition on potato dextrose agar; assay type: cell-based
Method: as §1, §2, §3, §4, §5

Pestalotia guepinii [1] = experiment: mycelial growth inhibition on potato dextrose agar; assay type: cell-based
Method: as §1, §2, §3, §4, §5

Drechslera sp. = experiment: mycelial growth inhibition on potato dextrose agar; assay type: cell-based; conditions: for EC50: estimated; for inhibiting fungus: at all experimental concentrations; for inhibition at 50 µg/mL: 480 h, 50 μg/mL, day 20, read-out: colonies inhibited
Method: as §1, §2, §3, §4, §5

Fusarium avenaceum [2] = experiment: mycelial growth inhibition on potato dextrose agar; assay type: cell-based; conditions: for inhibition at 10 µg/mL: read-out: inhibition of mycelial growth, CPT 10 μg/mL; for inhibiting fungus: at all experimental concentrations; for inhibition at 50 µg/mL / inhibition at 100 µg/mL: 672 h, day 28, read-out: inhibited fungal growth; for inhibition at 50 µg/mL: 50 μg/mL; for inhibition at 100 µg/mL: 100 μg/mL; for EC50: F. avenaceum, estimated, read-out: EC50 (effective concentration that caused 50% inhibition of mycelial growth)
Method: as §1, §2, §3, §4, §5

Fusarium avenaceum [3] = experiment: mycelial growth inhibition on potato dextrose agar; assay type: cell-based; conditions: in vitro; at the same concentrations as the dithiocarbamate (100 ppm)
Pestalotia guepinii [4] = experiment: mycelial growth inhibition on potato dextrose agar; assay type: cell-based; conditions: for EC50: read-out: EC50 (effective concentration that caused 50% inhibition of mycelial growth); for MIC: read-out: MIC (minimal inhibitory concentration); for inhibition at 50 µg/mL: 264 h, 50 μg/mL, day 11, read-out: colonies inhibited
F. oxysporum f. sp. lini = conditions: 100 ppm (100 μg/mL); cited from earlier work
Botrytis cinerea = conditions: in vitro tests and TLC bioautography; Sridhar et al. (2003); cited from earlier work
[5] = test system: F. oxysporum f.sp. lycopersici; conditions: mycelial growth; cited from earlier work
Alternaria mali = conditions: mycelial growth; cited from earlier work
[6] = at relatively higher concentrations
[7] = Drechslera sp., read-out: EC50 (effective concentration that caused 50% inhibition of mycelial growth)

COc1cc([C@H]2OC[C@H]3[C@@H]2CO[C@H]3c2ccc(O)c(OC)c2)ccc1O (racemic) [(±) pinoresinol]
MIC (F. verticillioides): 1,000 μg/mL

COc1cc(C=CC=O)ccc1O [4-hydroxy-3-methoxycinnamaldehyde]
MIC (F. verticillioides): 400 µg/mL (≈ 2240 µM)

CC[C@@]1(O)C(=O)OCc2c1cc1n(c2=O)Cc2cc3ccccc3nc2-1 [CPT, 4(S)-4-ethyl-4-hydroxy-1H-pyrano-(3′,4′:6,7) indolizino (1,2,-b) quinoline-3,14 (4H,12H)-dione]
EC50 (Alternaria alternata; Alternaria alternata, read-out: EC50 (effective concentration that caused 50% inhibition of mycelial growth)): < 25 mg/L | MIC (Alternaria alternata; Alternaria alternata, A. alternata, read-out: MIC (minimal inhibitory concentration)): 75 mg/L (≈ 215 µM) | inhibition at 10 µg/mL (Alternaria alternata; Alternaria alternata, CPT 10 μg/mL, read-out: colonies inhibited): 41 to 66% | days for mycelium to completely cover the agar surface (Alternaria alternata; CPT 10 μg/mL, control 13 days): 23 days | day colonies started to grow (Alternaria alternata; CPT 25 μg/mL): second day | colony expansion reduced (Alternaria alternata; CPT 25 μg/mL, 28 days vs. 13 days for control): 215% | days to cover the agar surface (Alternaria alternata; CPT 25 μg/mL, control 13 days): 28 days | colonies smaller than controls (Alternaria alternata; CPT 25 μg/mL, day 13): 52.8% | control of fungal growth (Alternaria alternata; CPT 75 μg/mL and above): totally controlled | suppressing growth (Alternaria alternata; [6]): effective | delayed mycelial growth (Epicoccum nigrum; CPT 10 μg/mL and 25 μg/mL, 28 days vs. 10 days for control): 280% | days to cover agar surface (Epicoccum nigrum; CPT 10 μg/mL and 25 μg/mL, control 10 days): 28 days | colonies smaller than controls (Epicoccum nigrum; CPT 10 μg/mL, day 10): 65% | colony radii (Epicoccum nigrum; CPT 25 μg/mL, day 15): 20 mm | day growth began (Epicoccum nigrum; CPT 50 μg/mL): 8th day | colony radii (Epicoccum nigrum; CPT 50 μg/mL, day 20): 8 mm | growth inhibition (Epicoccum nigrum; CPT 75 μg/mL and higher): totally inhibited growth | EC50 (Epicoccum nigrum; Epicoccum nigrum, read-out: EC50 (effective concentration that caused 50% inhibition of mycelial growth), E. nigrum, estimated): ~10 mg/L (≈ 28.7 µM) | inhibition at 50 µg/mL (Epicoccum nigrum; Epicoccum nigrum, CPT 50 μg/mL, read-out: inhibited growth): > 90% | MIC (Epicoccum nigrum; Epicoccum nigrum, E. nigrum, read-out: MIC (minimal inhibitory concentration)): 75 mg/L (≈ 215 µM) | suppressing growth (Epicoccum nigrum; [6]): effective | reduced mycelial growth (Pestalotia guepinii [1]; CPT 10 μg/mL, 11th day): 43.5% | day colonies reached the petri dish margins (Pestalotia guepinii [1]; CPT 10 μg/mL, control 11th day): 20 days | growth inhibition (Pestalotia guepinii [1]; CPT 125 μg/mL and above): totally inhibited growth | growth inhibition (Drechslera sp.; CPT 100 μg/mL and higher): completely inhibited fungal growth | inhibition compared with Bravo (Drechslera sp.; CPT at all experimental levels (10-150 μg/mL) vs Bravo 10,000 μg/mL): greater inhibition rates than Bravo | EC50 (Drechslera sp.; Drechslera, read-out: EC50 (effective concentration that caused 50% inhibition of mycelial growth), Drechslera sp.): ~10 mg/L (≈ 28.7 µM) | MIC (Drechslera sp.; Drechslera, read-out: MIC (minimal inhibitory concentration)): 100 mg/L (≈ 287 µM) | inhibiting fungus (Drechslera sp.): highly effective | growth inhibition (Fusarium avenaceum [2]; CPT 125 and 150 μg/mL): completely inhibited growth | MIC (Fusarium avenaceum [2]; Fusarium avenaceum, read-out: MIC (minimal inhibitory concentration; complete inhibition)): 125 mg/L (≈ 359 µM) | inhibition at 30 µg/mL (Fusarium avenaceum [2]; Fusarium avenaceum, read-out: inhibited the rate of mycelial growth, CPT 30 μg/mL): > 60% | inhibition at 10 µg/mL (Fusarium avenaceum [2]; Fusarium avenaceum, first several days of the experiment): 70 to 80% | inhibition at 10 µg/mL (Fusarium avenaceum [2]; Fusarium avenaceum, later stages): ~40% | inhibiting fungus (Fusarium avenaceum [2]): highly effective | inhibited growth (Fusarium avenaceum [3]): 70% | EC50 (Pestalotia guepinii [4]): ~10 mg/L (≈ 28.7 µM) | MIC (Pestalotia guepinii [4]): 125 mg/L (≈ 359 µM)

CCN(CC)C(=S)[S-].[Na+] [N,N-diethyldithiocarbamic acid sodium salt]
inhibit growth (F. oxysporum f. sp. lini): 7-30%

COc1cc(C=O)ccc1O [Vanillin]
MIC (F. verticillioides): 600 µg/mL (≈ 3940 µM)

CC(C)=CCC/C(C)=C/CO [geraniol]
minimum concentration (MIC) (Botrytis cinerea): 160 mg/L

O=c1c(O[C@@H]2O[C@H](CO)[C@H](O)[C@H](O)[C@H]2O)c(-c2ccc(O)c(O)c2)oc2cc(O)cc(O)c12 [hyperoside, quercetin-3-O-β-D-galactopyranoside]
growth inhibition (Drechslera sp.; 100 μg/mL, 28-day experiment): little growth by day 28 | growth inhibition (Drechslera sp.; 150 μg/mL): completely inhibited growth | EC50 (Drechslera sp.; [7]): < 50 mg/L | inhibition at 50 µg/mL (Drechslera sp.; Drechslera): 74.3% | inhibiting fungus (Drechslera sp.): highly effective | growth inhibition (Fusarium avenaceum [2]; 150 μg/mL): completely inhibited fungal growth during the first four weeks | inhibition at 50 µg/mL (Fusarium avenaceum [2]; Fusarium avenaceum): 31.6% | inhibition at 100 µg/mL (Fusarium avenaceum [2]; Fusarium avenaceum): 72.6% | EC50 (Fusarium avenaceum [2]; Fusarium avenaceum): 50 to 100 mg/L (≈ 108 to 215 µM) | inhibiting fungus (Fusarium avenaceum [2]): highly effective | inhibited growth (Fusarium avenaceum [3]): 70% | inhibition at 50 µg/mL (Pestalotia guepinii [4]): 53.8% | EC50 (Pestalotia guepinii [4]; P. guepinii, estimated): ~50 mg/L (≈ 108 µM) | MIC (Pestalotia guepinii [4]; P. guepinii): < 125 mg/L

O=c1c(O[C@@H]2O[C@H](CO)[C@H](O)[C@H](O)[C@H]2O)c(-c2ccc(O)cc2)oc2cc(O)cc(O)c12 [trifolin, kaempferol-3-O-β-D-galactopyranoside]
growth inhibition (Drechslera sp.; 100 μg/mL, 28-day experiment): totally controlled the fungus | growth inhibition (Drechslera sp.; 150 μg/mL): completely inhibited growth | EC50 (Drechslera sp.; [7]): < 50 mg/L | inhibition at 50 µg/mL (Drechslera sp.; Drechslera): 76.1% | inhibiting fungus (Drechslera sp.): highly effective | growth inhibition (Fusarium avenaceum [2]; 150 μg/mL): totally controlled the fungus during the entire experiment | inhibition at 50 µg/mL (Fusarium avenaceum [2]; Fusarium avenaceum): 35.8% | inhibition at 100 µg/mL (Fusarium avenaceum [2]; Fusarium avenaceum): 74.8% | EC50 (Fusarium avenaceum [2]; Fusarium avenaceum): 50 to 100 mg/L (≈ 112 to 223 µM) | inhibiting fungus (Fusarium avenaceum [2]): highly effective | inhibited growth (Fusarium avenaceum [3]): 70% | inhibition at 50 µg/mL (Pestalotia guepinii [4]): 53.4% | EC50 (Pestalotia guepinii [4]; P. guepinii, estimated): ~50 mg/L (≈ 112 µM) | MIC (Pestalotia guepinii [4]; P. guepinii): < 125 mg/L

C/C=C\c1cc(OC)c(OC)cc1OC [β-Asarone]
MIC [5]: > 100 mg/L | MIC (Alternaria mali): > 100 mg/L
